Test results taken from US20030044413A1, “Methods of limiting apoptosis of cells” (Regents of the University of Minnesota, priority 1998, published 2003).
Values joined by “and” are separate entries in the source; they are usually repeats but may differ in a detail not shown here. Equal entries are not always repeated.

How the values were obtained:
[1] = system: rat primary hepatocytes; assay: Apoptosis in isolated rat hepatocytes with DCA, TGF-β1 or okadaic acid ± UDCA (Example III); assay type: cell-based; conditions: for percentage of apoptotic cells: 50 μM deoxycholic acid 4 hours, 1 nM TGF-β1 24 hours, 25 nM okadaic acid 16 hours
Excerpt: Cell culture and preparation of rat primary hepatocytes. Rat primary hepatocytes were isolated from male Sprague-Dawley rats (200-250 g) by collagenase perfusion as described by Mariasb, et al., J. Biol. Chem. 261, 9583-9586 (1986). Briefly, rats were anesthesized with phenobarbitol and the livers were perfused with 0.05% collagenase. Hepatocyte suspensions were obtained by passing digested livers through 0.125 mm gauze and washing cells in modified Eagle's medium (MEM) (Life Technologies, Inc., Grand Island, N.Y.). Cell viability was determined by trypan blue exclusion and was typically 85 to 90%. After isolation, hepatocytes were resuspended in William's E medium (Life Technologies, Inc.) supplemented with 26 mM sodium bicarbonate, 23 mM HEPES, 0.01 U/mL insulin, 2 mM L-glutamine, 10 nM dexamethasone, 5.5 mM glucose, 100 U/ml penicillin and 100 U/ml streptomycin and then plated on 35×10 mm […] tissue culture dishes (Becton Dickinson Labware, Lincoln Park, N.J.) at 1.0×10^6 cells/ml. The cells were maintained at 37° C. in a humidified atmosphere of 5% CO2 for 3 h. Plates were then washed with medium to remove dead cells, and medium containing 10% heat-inactivated FBS (55° C. for 30 min) was added (Atlanta Biologicals, Inc., Norcross, Ga.).
Incubation of cells with inducers of apoptosis. Freshly isolated rat hepatocytes were cultured for 3 h as described above and then incubated with William's E medium supplemented with either 50 μM DCA for 4 h, 1 nM TGF-β1 for 24 h, or 25 nM okadaic acid for 16 h, in the presence or absence of 100 μM UDCA, or no addition (control). The medium was gently removed at the indicated time points and scored for nonviable cells by trypan blue dye exclusion. The attached cells were fixed for morphologic assessment of apoptotic changes. Morphological evaluation of apoptosis. The medium was gently removed at the indicated time points to prevent detachment of cells. Cells were fixed with 4% formaldehyde in PBS, pH 7.4, for 10 min at room temperature, incubated with Hoechst dye 33258 (Sigma Chemical Co., St. Louis, Mo.) at […] in PBS for 5 min, washed with PBS and mounted with PBS:glycerol (3:1, v/v). Fluorescence was visualized with a Zeiss standard fluorescence microscope (Carl Zeiss, Inc., Thornwood, N.Y.). Photographs were taken with Kodak Ektar-1000 film (Eastman Kodak Co.). Stained nuclei were scored by blind analysis and categorized according to the condensation and staining characteristics of chromatin. Normal nuclei were identified as noncondensed chromatin dispersed over the entire nucleus. […] Three fields per dish of approximately 500 nuclei were counted; mean values are expressed as the percent of apoptotic nuclei.

[2] = system: isolated rat liver mitochondria; assay: MPT spectrophotometric assay (mitochondrial swelling); conditions: for effect on DCA-induced MPT / mitochondrial swelling: preincubation (500 μM bile acid or cyclosporine A) before DCA; for mitochondrial swelling with the substance alone: substance alone added to isolated mitochondria
Protocol: Isolation of mitochondria and MPT assays. Low calcium liver mitochondria were isolated from male 200-250 g Sprague-Dawley rats by density gradient centrifugation as previously published (Botla et al., J. Pharmacol. Exp. Ther., 272, 930-938 (1995); Walajtys-Rhode et al., J. Biol. Chem., 267, 370-379 (1992); and Sokol et al., Gastroenterology, 99, 1061-1071 (1990)). The mitochondrial fraction was resuspended in 30 ml of wash buffer containing 0.1 M KCl, 5 mM 3-(N-morpholino)-propane sulfonic acid (MOPS), and 1 mM EGTA, at pH 7.4 and centrifuged at 7,000×g for 10 min at 4° C. A final wash was carried out in chelex-100-treated buffer (Bio-Rad Laboratories, Hercules, Calif.) containing no EGTA. The resulting pellet was suspended in 4 ml of chelex--100-treated buffer containing 125 mM sucrose, 5 mM HEPES, 50 mM KCl and 2 mM KH2PO4. The usual yield of mitochondria was approximately 25 mg of protein per gram of liver tissue. Mitochondrial purity was established as previously described (Botla et al., J. Pharmacol. Exp. Ther., 272, 930-938 (1995)). Protein concentrations were determined using the Bio-Rad protein assay kit as specified by the manufacturer.
MPT was measured spectrophotometrically as described previously (Botla et al., J. Pharmacol. Exp. Ther., 272, 930-938 (1995); Pastorino et al., J. Biol. Chem., 268, 13791-13798 (1993)), during 10 min incubations at 25° C. using mitochondria (1 mg of protein/ml) suspended in 3 ml of a chelex-100-treated buffer containing 0.1 M NaCl, 10 mM MOPS, pH 7.4. Swelling was monitored at 540 nm in a Beckman DU 64 spectrophotometer. Basal values of mitochondria absorbance were measured for 5 min, and the optical density was monitored another 5 min after addition of 200 μM DCA or 80 μM phenylarsine oxide (PhAsO; Sigma Chemical Co.). For coincubation studies, mitochondria were preincubated with 500 μM UDCA or hyodeoxycholic acid for 5 min at 25° C. prior to the assay.
Spectrophotometric and Fluorimetric Assays of MPT. The MPT was assessed using a spectrophotometric assay measuring high amplitude rapid changes in mitochondrial volume, and a fluorimetric assay quantitating the release of calcein from calcein-loaded mitochondria. The MPT was measured spectrophotometrically as previously described (Pastorino, J. Biol. Chem., 268, 13791-13798 (1993); Botla et al., J. Pharmacol. Exp. Ther., 272, 930-938 (1995)). Briefly, mitochondria (3 mg protein) were incubated in 3 ml of chelex-100-treated respiration buffer (0.1 M NaCl, 10 mM MOPS, pH 7.4) for 10 min at 25° C. and monitored at 540 nm in a Beckman DU 64 spectrophotometer. Basal values of mitochondrial absorbance were measured for 5 min, and the optical density was monitored for an additional 5 min after addition of increasing concentrations of DCA (50-200 μM) or 80 μM phenylarsine oxide (PhAsO; Sigma Chemical Co., St. Louis, Mo.). For the coincubation studies, mitochondria were preincubated with UDCA (100-500 μM), or 500 μM hyodeoxycholic acid (HDCA; Sigma Chemical Co.) for 5 min at 25° C. prior to initiation of the assay.
Measurement of MPT and determination of cytochrome c content in supernatants and mitochondrial pellets after MPT. The MPT was assessed using a spectrophotometric assay measuring high amplitude rapid changes in mitochondria volume. Mitochondria (1 mg protein) were incubated in 1 ml of chelex-100-treated respiration buffer (0.1 M NaCl, 10 mM MOPS, pH 7.4) for 10 min at 25° C. and swelling was monitored at 540 nm in a Beckman DU 64 spectrophotometer. Malate and glutamate (1 mM) were added to initiate respiration, and 3 min later rotenone (5 μM), an inhibitor of complex I of the respiratory chain, was also added to the supension. Basal values of mitochondria absorbance were measured for 5 min, and the optical density was monitored for an additional 5 min after addition 200 μM DCA or 80 μM phenylarsine oxide (PhAsO; Sigma Chemical Co.). […]

C[C@H](CCC(=O)O)[C@H]1CC[C@H]2[C@@H]3CC[C@@H]4C[C@H](O)CC[C@]4(C)[C@H]3C[C@H](O)[C@]12C [DCA, deoxycholic acid]
percentage of apoptotic cells [1]: 7% | concentration at which high amplitude mitochondrial swelling was detected (as low as) [2]: 50 µM | MPT, increase over control ([2]; 50 μM DCA): 4 fold

C[C@H](CCC(=O)O)[C@H]1CC[C@H]2[C@@H]3[C@@H](O)C[C@@H]4C[C@H](O)CC[C@]4(C)[C@H]3CC[C@]12C [UDCA, ursodeoxycholic acid]
inhibition at 100 µM ([1]; Rattus norvegicus, Hepatocyte, 100 μM UDCA with each of the apoptosis-inducing agents): > 80% | swelling ([2]; 100 μM UDCA 5 min before 200 μM DCA): 26.8±6.3% | inhibition of DCA-induced MPT (mitochondrial swelling) ([2]; 200 μM DCA, pretreatment 500 μM UDCA or 5 μM cyclosporine A): > 40% and 43.1±1.6% | swelling ([2]; 500 μM UDCA 5 min before 200 μM DCA): 16.9±2.3%

C[C@H](CCC(=O)O)[C@H]1CC[C@H]2[C@@H]3C[C@H](O)[C@@H]4C[C@H](O)CC[C@]4(C)[C@H]3CC[C@]12C [hyodeoxycholic acid]
effect on DCA-induced MPT / mitochondrial swelling [2]: nor did it have a protective effect | effect on DCA-induced MPT / mitochondrial swelling ([2]; listed as HDCA): did not decrease DCA-induced mitochondrial swelling | mitochondrial swelling with the substance alone [2]: No significant mitochondrial swelling

C=C1[C@@H](O)[C@@H]2O[C@]3(CC[C@H](/C=C/[C@@H](C)[C@@H]4CC(C)=C[C@@]5(O[C@H](C[C@@](C)(O)C(=O)O)CC[C@H]5O)O4)O3)CC[C@H]2O[C@@H]1[C@@H](O)C[C@H](C)[C@H]1O[C@@]2(CCCCO2)CC[C@H]1C [okadaic acid]
percentage of apoptotic cells [1]: 75% | mitochondrial swelling with the substance alone [2]: did not induce mitochondria swelling

TGF-β1: transforming growth factor β1, nonmembrane damaging inducer of apoptosis
percentage of apoptotic cells [1]: 30% | mitochondrial swelling with the substance alone [2]: did not induce mitochondria swelling
